The text below walks through data of patent US9115101B2 (Genentech, Inc., priority 2012, dated 2015).

pIC50: −log10 of the molar value. Read-outs that look alike come from different tables or passages of the source.

In general, pIC50 refers to −log10 of the IC50, conventionally taken in molar units.

In this assay the target is T1, RORc ligand binding domain (Homo sapiens, UniProt P51449).
T1 construct: host or cells: E. coli
T1 sequence (P51449 269-508 limits assumed): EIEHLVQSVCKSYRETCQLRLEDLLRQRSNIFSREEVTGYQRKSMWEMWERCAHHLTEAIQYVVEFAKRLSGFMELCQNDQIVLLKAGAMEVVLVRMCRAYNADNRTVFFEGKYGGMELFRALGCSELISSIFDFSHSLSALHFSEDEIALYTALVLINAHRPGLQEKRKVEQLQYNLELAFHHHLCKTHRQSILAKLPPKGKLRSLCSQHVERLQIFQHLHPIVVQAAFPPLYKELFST
Nature of the assay: In Vitro RORc Ligand Binding Assay (25-[3H]hydroxycholesterol radioligand filtration). To be noted: read-out: RORc IC50.

[1] abbreviates: In Vitro RORc Ligand Binding Assay, Table 4.

As for `C[C@H]1CCC(c2ccccc2)S(=O)(=O)N1Cc1ccc(N2CCn3c(cnc3C#N)C2)cc1F` (stereo partly drawn), the pIC50 was 6.74.

With `C[C@H]1CCC(c2ccccc2)S(=O)(=O)N1Cc1ccc(N2CCC(N3CCCC3=O)CC2)cc1F` (stereo partly drawn), the pIC50 was 6.06.

For the compound `CC(=O)N1CCN(c2ccc(CN3CCCC(c4ccccc4)S3(=O)=O)c(F)c2)CC1` (single isomer, unassigned) [Example 1], the negative logarithm of the IC50 (pIC50) under setting [1] is 6.61.

With `CC(=O)N1CCN(c2ccc(CN3CCCC(c4ccccc4)S3(=O)=O)c(F)c2)CC1` (single isomer, unassigned) [Example 2], under setting [1], the negative logarithm of the IC50 (pIC50) was 6.80.

For the compound `CS(=O)(=O)N1CCC(Oc2ccc(CN3CCCC(c4ccccc4)S3(=O)=O)c(F)c2)CC1` (single isomer, unassigned) [Example 3], the negative logarithm of the IC50 (pIC50) under setting [1] is 7.07.

`CS(=O)(=O)N1CCC(Oc2ccc(CN3CCCC(c4ccccc4)S3(=O)=O)c(F)c2)CC1` (single isomer, unassigned) [Example 4]: the pIC50 under setting [1] is 7.43.

Take `CC(=O)N1CCN(c2ccc(CN3CCCC(c4ccc(F)cc4)S3(=O)=O)c(F)c2)CC1` (single isomer, unassigned) [Example 11, 1-(4-{3-Fluoro-4-[6-(4-fluoro-phenyl)-1,1-dioxo-[1,2]thiazinan-2-ylmethyl]-phenyl}-piperazin-1-yl)-ethanone]: the pIC50 under setting [1] was 6.90.

Turning to `CC(=O)N1CCN(c2ccc(CN3CCCC(c4ccc(F)cc4)S3(=O)=O)c(F)c2)CC1` (single isomer, unassigned) [Example 12, 1-(4-{3-Fluoro-4-[6-(4-fluoro-phenyl)-1,1-dioxo-[1,2]thiazinan-2-ylmethyl]-phenyl}-piperazin-1-yl)-ethanone], under setting [1], the pIC50 was 6.62.

In the case of `CC(=O)N1CCN(c2ccc(CN3C(C)(C)CCC(c4ccccc4)S3(=O)=O)c(F)c2)CC1` (single isomer, unassigned) [Example 13, 1-{4-[4-(3,3-Dimethyl-1,1-dioxo-6-phenyl-[1,2]thiazinan-2-ylmethyl)-3-fluoro-phenyl]-piperazin-1-yl}-ethanone], the negative logarithm of the IC50 (pIC50) under setting [1] is 6.85.

As for `CC(=O)N1CCN(c2ccc(CN3C(C)(C)CCC(c4ccccc4)S3(=O)=O)c(F)c2)CC1` (single isomer, unassigned) [Example 14, 1-{4-[4-(3,3-Dimethyl-1,1-dioxo-6-phenyl-[1,2]thiazinan-2-ylmethyl)-3-fluoro-phenyl]-piperazin-1-yl}-ethanone], the negative-log IC50 (pIC50) under setting [1] is 5.72.

In the case of `CC(=O)N1CCN(c2ccc(CN3CCCCC(c4ccccc4)S3(=O)=O)c(F)c2)CC1` (single isomer, unassigned) [Example 15, 1-{4-[4-(1,1-Dioxo-7-phenyl-[1,2]thiazepan-2-ylmethyl)-3-fluoro-phenyl]-piperazin-1-yl}-ethanone], under setting [1], the negative-log IC50 (pIC50) is 7.96.

On to `CC(=O)N1CCN(c2ccc(CN3CCCCC(c4ccccc4)S3(=O)=O)c(F)c2)CC1` (single isomer, unassigned) [Example 16, 1-{4-[4-(1,1-Dioxo-7-phenyl-[1,2]thiazepan-2-ylmethyl)-3-fluoro-phenyl]-piperazin-1-yl}-ethanone], for which the negative logarithm of the IC50 (pIC50) under setting [1] was 7.49.

As to `CC(=O)N1CCN(c2ccc(CN3[C@@H](C)CCC(c4ccccc4)S3(=O)=O)c(F)c2)CC1` (single isomer, unassigned) [Example 17], under setting [1], the negative logarithm of the IC50 (pIC50) is 7.80.

Regarding `CC(=O)N1CCN(c2ccc(CN3[C@@H](C)CCC(c4ccccc4)S3(=O)=O)c(F)c2)CC1` (single isomer, unassigned) [Example 18], under setting [1], the pIC50 was 7.33.

As for `CC(=O)N1CCN(c2ccc(CN3[C@H](C)CCC(c4ccccc4)S3(=O)=O)c(F)c2)CC1` (single isomer, unassigned) [Example 19], the negative logarithm of the IC50 (pIC50) under setting [1] was 5.55.

As for `CC(=O)N1CCN(c2ccc(CN3[C@H](C)CCC(c4ccccc4)S3(=O)=O)c(F)c2)CC1` (single isomer, unassigned) [Example 20], the negative-log IC50 (pIC50) under setting [1] is 7.59.

`CC(=O)N1CCN(c2ccc(CN3CCOCC(c4ccccc4)S3(=O)=O)c(F)c2)CC1` (single isomer, unassigned) [Example 22, 1-{4-[4-(4,4-Dioxo-3-phenyl-[1,4,5]oxathiazepan-5-ylmethyl)-3-fluoro-phenyl]-piperazin-1-yl}-ethanone]: under setting [1], the pIC50 is 6.12.

For the compound `CC(=O)N1CCN(c2ccc(CN3CCOCC(c4ccccc4)S3(=O)=O)c(F)c2)CC1` (single isomer, unassigned) [Example 23, 1-{4-[4-(4,4-Dioxo-3-phenyl-[1,4,5]oxathiazepan-5-ylmethyl)-3-fluoro-phenyl]-piperazin-1-yl}-ethanone], the negative logarithm of the IC50 (pIC50) under setting [1] was 7.35.

As to `CC(=O)N1CCN(c2ccc(CN3[C@@H](C)COCC(c4ccccc4)S3(=O)=O)c(F)c2)CC1` (single isomer, unassigned) [Example 24], the pIC50 under setting [1] is 6.74.

`CC(=O)N1CCN(c2ccc(CN3[C@@H](C)COCC(c4ccccc4)S3(=O)=O)c(F)c2)CC1` (single isomer, unassigned) [Example 25]: under setting [1], the negative logarithm of the IC50 (pIC50) is 7.49.

With `CC(=O)N1CCN(c2ccc(CN3[C@H](C)COCC(c4ccccc4)S3(=O)=O)c(F)c2)CC1` (single isomer, unassigned) [Example 26], under setting [1], the pIC50 is 5.70.

With `CC(=O)N1CCN(c2ccc(CN3[C@H](C)COCC(c4ccccc4)S3(=O)=O)c(F)c2)CC1` (single isomer, unassigned) [Example 27], the pIC50 under setting [1] is 6.73.

For `CC(=O)N1CCN(c2ccc(CN3C[C@H](C)OCC(c4ccccc4)S3(=O)=O)c(F)c2)CC1` (single isomer, unassigned) [Example 28], the negative-log IC50 (pIC50) under setting [1] is 6.98.

As to `CC(=O)N1CCN(c2ccc(CN3C[C@H](C)OCC(c4ccccc4)S3(=O)=O)c(F)c2)CC1` (single isomer, unassigned) [Example 29], under setting [1], the pIC50 was 7.62.

For `CC(=O)N1CCN(c2ccc(CN3C[C@@H](C)OCC(c4ccccc4)S3(=O)=O)c(F)c2)CC1` (single isomer, unassigned) [Example 30], the negative logarithm of the IC50 (pIC50) under setting [1] was 6.97.

`CC(=O)N1CCN(c2ccc(CN3C[C@@H](C)OCC(c4ccccc4)S3(=O)=O)c(F)c2)CC1` (single isomer, unassigned) [Example 31]: the pIC50 under setting [1] was 6.14.

`C[C@H]1CCC(c2ccccc2)S(=O)(=O)N1Cc1ccc(OC2CCN(S(C)(=O)=O)CC2)cc1F` (single isomer, unassigned) [Example 32]: the negative-log IC50 (pIC50) under setting [1] was 7.77.

For `C[C@H]1CCC(c2ccccc2)S(=O)(=O)N1Cc1ccc(OC2CCN(S(C)(=O)=O)CC2)cc1F` (single isomer, unassigned) [Example 33], the pIC50 under setting [1] was 7.89.

For `C[C@H]1CCC(c2ccccc2)S(=O)(=O)N1Cc1ccc(OC2CCN(S(C)(=O)=O)CC2)nc1` (single isomer, unassigned) [Example 34], under setting [1], the negative logarithm of the IC50 (pIC50) was 6.16.

For the compound `C[C@H]1CCC(c2ccccc2)S(=O)(=O)N1Cc1ccc(OC2CCN(S(C)(=O)=O)CC2)nc1` (single isomer, unassigned) [Example 35], under setting [1], the pIC50 was 5.96.

`C[C@H]1CCC(c2ccccc2)S(=O)(=O)N1Cc1ccc(OC2CN(S(C)(=O)=O)C2)cc1F` (single isomer, unassigned) [Example 36]: the pIC50 under setting [1] is 7.15.

For `C[C@H]1CCC(c2ccccc2)S(=O)(=O)N1Cc1ccc(OC2CN(S(C)(=O)=O)C2)cc1F` (single isomer, unassigned) [Example 37], the pIC50 under setting [1] was 6.71.

In the case of `C[C@H]1CCC(c2ccccc2)S(=O)(=O)N1Cc1ccc(OC2CCS(=O)(=O)CC2)cc1F` (single isomer, unassigned) [Example 38], the negative-log IC50 (pIC50) under setting [1] is 6.87.

Consider `C[C@H]1CCC(c2ccccc2)S(=O)(=O)N1Cc1ccc(OC2CCS(=O)(=O)CC2)cc1F` (single isomer, unassigned) [Example 39], for which, under setting [1], the pIC50 was 6.92.

As to `CC(=O)N1CCN(c2ccc(CN3[C@@H](C)CCC(c4ccccc4)S3(=O)=O)cc2)CC1` (single isomer, unassigned) [Example 40], the negative logarithm of the IC50 (pIC50) under setting [1] was 7.09.

Regarding `CC(=O)N1CCN(c2ccc(CN3[C@@H](C)CCC(c4ccccc4)S3(=O)=O)cc2)CC1` (single isomer, unassigned) [Example 41], the negative-log IC50 (pIC50) under setting [1] was 6.90.

For the compound `CC(=O)N1CCN(c2ccc(CN3[C@@H](C)CCC(c4ccccc4)S3(=O)=O)cn2)CC1` (single isomer, unassigned) [Example 42], the pIC50 under setting [1] was 6.08.

For the compound `CC(=O)N1CCN(c2ccc(CN3[C@@H](C)CCC(c4ccccc4)S3(=O)=O)cn2)CC1` (single isomer, unassigned) [Example 43], under setting [1], the pIC50 is 5.82.

Take `C[C@H]1CCC(c2ccccc2)S(=O)(=O)N1Cc1ccc(OC2CCN(S(C)(=O)=O)CC2)cc1` (single isomer, unassigned) [Example 44]: the pIC50 under setting [1] is 7.85.

With `C[C@H]1CCC(c2ccccc2)S(=O)(=O)N1Cc1ccc(OC2CCN(S(C)(=O)=O)CC2)cc1` (single isomer, unassigned) [Example 45], the pIC50 under setting [1] is 7.66.

Regarding `CC(=O)N1CCN(c2ccc(CN3[C@H](C)CCC(c4ccccc4)S3(=O)=O)cc2)CC1` (single isomer, unassigned) [Example 47], the negative logarithm of the IC50 (pIC50) under setting [1] is 6.52.

On to `CC(=O)N1CCN(c2ccc(CN3[C@H](C)CCC(c4ccccc4)S3(=O)=O)cn2)CC1` (single isomer, unassigned) [Example 48], for which the pIC50 under setting [1] is 5.82.

For `CC(=O)N1CCN(c2ccc(CN3[C@H](C)CCC(c4ccccc4)S3(=O)=O)cn2)CC1` (single isomer, unassigned) [Example 49], the pIC50 under setting [1] was 5.26.

Regarding `C[C@@H]1CCC(c2ccccc2)S(=O)(=O)N1Cc1ccc(OC2CCN(S(C)(=O)=O)CC2)nc1` (single isomer, unassigned) [Example 50], under setting [1], the negative-log IC50 (pIC50) is 6.77.

`C[C@@H]1CCC(c2ccccc2)S(=O)(=O)N1Cc1ccc(OC2CCN(S(C)(=O)=O)CC2)nc1` (single isomer, unassigned) [Example 51]: under setting [1], the pIC50 was 5.85.
